Laboratory results: the supplement of paper PMC10307832

Tests used:
Experiment in all cases: relative viability (nuclei count vs DMSO), 5 days (fraction); higher = more cells survive
[1] = compound: CS(=O)(=O)c1ccc(C(=O)Nc2ccc(Cl)c(-c3ccccn3)c2)c(Cl)c1 [Vismodegib] + CC(C)C[C@H](NC(=O)[C@H](Cc1ccccc1)NC(=O)c1cnccn1)B(O)O [Bortezomib] (partner 0.002 µM)
Outline: (§1)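 Dosing by pin tool came one day after lung cancer cell lines were seeded in 1536-well plates, using either one drug or a fixed anchor-drug dose plus five library-drug doses (not always all listed) in √10 steps. After 5 days, nuclei were counted on 4× images. Relative viability is treated-well nuclei count divided by vehicle-well nuclei count, and values are medians of duplicate plates.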

[2] = compound: CS(=O)(=O)c1ccc(-c2cnc(N)c(C(=O)Nc3ccccc3)n2)cc1 [VE-821] + CS(=O)(=O)CCNCc1ccc(-c2ccc3ncnc(Nc4ccc(OCc5cccc(F)c5)c(Cl)c4)c3c2)o1 [Lapatinib] (partner 2 µM)
Outline: as §1

[3] = compound: CS(=O)(=O)c1ccc(-c2cnc(N)c(C(=O)Nc3ccccc3)n2)cc1 [VE-821] + CC1(C)CCC(c2ccc(Cl)cc2)=C(CN2CCN(c3ccc(C(=O)NS(=O)(=O)c4ccc(N[C@H](CCN5CCOCC5)CSc5ccccc5)c(S(=O)(=O)C(F)(F)F)c4)cc3)CC2)C1 [Navitoclax] (partner 0.5 µM)
Outline: as §1

[4] = compound: CS(=O)(=O)c1ccc(C(=O)Nc2ccc(Cl)c(-c3ccccn3)c2)c(Cl)c1 [Vismodegib] + C[C@]1(O)C[C@@H](c2nc(-c3ccc4ccc(-c5ccccc5)nc4c3)c3c(N)nccn32)C1 [Linsitinib] (partner 1 µM)
Outline: as §1

Row | Cell Line | relative viability ([1]; first compound 0.08 µM) | relative viability ([1]; first compound 0.253 µM) | relative viability ([1]; first compound 0.8 µM) | relative viability ([1]; first compound 2.53 µM) | relative viability ([1]; first compound 8 µM) | relative viability ([2]; first compound 0.08 µM) | relative viability ([2]; first compound 0.253 µM) | relative viability ([2]; first compound 0.8 µM) | relative viability ([2]; first compound 2.53 µM) | relative viability ([2]; first compound 8 µM) | relative viability ([3]; first compound 0.08 µM) | relative viability ([3]; first compound 0.253 µM) | relative viability ([3]; first compound 0.8 µM) | relative viability ([3]; first compound 2.53 µM) | relative viability ([3]; first compound 8 µM) | relative viability ([4]; first compound 0.08 µM) | relative viability ([4]; first compound 0.253 µM) | relative viability ([4]; first compound 0.8 µM) | relative viability ([4]; first compound 2.53 µM) | relative viability ([4]; first compound 8 µM)
1 | HARA | 1.08 | 1.1 | 1.11 | 1.19 | 1.17 | 0.825 | 0.559 | 0.826 | 0.757 | 0.47 | 1.23 | 1.13 | 1.09 | 1.15 | 0.99 | 0.844 | 0.944 | 0.76 | 0.967 | 1.04
2 | PC-14 | 0.802 | 0.779 | 0.994 | 0.761 | 0.755 | 0.336 | 0.297 | 0.286 | 0.32 | 0.277 | 1.09 | 0.955 | 1.06 | 0.962 | 0.923 | 0.897 | 0.911 | 0.982 | 0.899 | 0.998
3 | SW 1573 | 0.958 | 0.995 | 1.16 | – | 0.946 | 1.12 | 1.07 | 1.12 | 0.58 | 0.989 | 1.12 | 0.992 | 1.03 | 0.796 | 1.1 | 0.823 | 0.728 | 0.789 | 0.64 | 0.821
4 | NCI-H1355 | 1.23 | 1.18 | 1.12 | 1.1 | 1.11 | 1.06 | 1.05 | 0.834 | 1.07 | 0.627 | 1.09 | 0.91 | 0.729 | 0.879 | 0.542 | 0.844 | 0.724 | 0.798 | 0.808 | 0.856
5 | NCI-H460 | 1.13 | 0.929 | 1.19 | 0.998 | 1.2 | 1.33 | 0.996 | 0.82 | 0.729 | 0.398 | 1.23 | 1.01 | 1.02 | 0.646 | 0.159 | 0.732 | 0.74 | 0.773 | 0.733 | 1.08
6 | NCI-H2126 | 1.08 | 1.09 | 1.1 | 1.14 | 1.15 | 0.741 | 0.713 | 0.747 | 0.677 | 0.6 | 0.897 | 0.821 | 0.833 | 0.815 | 0.699 | 0.667 | 0.711 | 0.638 | 0.762 | 0.677
7 | COR-L 105 | 0.765 | 0.907 | 0.778 | 0.753 | 0.665 | 0.383 | 0.354 | 0.341 | 0.351 | 0.463 | 0.797 | 0.683 | 0.651 | 0.606 | 0.725 | 0.781 | 0.978 | 0.965 | 1.01 | 0.849
8 | H3255 | 0.855 | 0.632 | 0.596 | 0.762 | 0.753 | 0.229 | 0.256 | 0.378 | 0.241 | 0.264 | 0.563 | 0.485 | 0.571 | 0.56 | 0.425 | 0.967 | 0.88 | 1 | 0.959 | 0.897
9 | NCI-H2347 | 1 | 0.9 | – | 0.969 | 0.968 | 1.02 | 1.05 | 0.664 | 1.03 | 1.14 | 0.941 | 0.809 | 0.775 | 0.959 | 0.763 | 0.902 | 0.997 | 0.857 | 0.962 | 1.04
10 | CAL-12T | – | 0.882 | 0.91 | 0.935 | 0.999 | 0.656 | 0.7 | 0.637 | 0.839 | 0.456 | 1.21 | 1.26 | 1.22 | 1.05 | 1.1 | 0.927 | 0.765 | 0.95 | 0.722 | 0.679
11 | HCC-827 | 1.05 | 1.06 | 0.982 | 1.14 | 0.985 | 0.221 | 0.201 | 0.189 | 0.201 | 0.209 | 1.05 | 1.02 | 1.07 | 1.02 | 1.01 | 0.926 | 0.906 | 0.949 | 0.896 | 1.04
12 | NCI-H520 | 0.443 | 0.812 | 0.619 | 0.697 | 0.668 | 0.874 | 0.845 | – | 0.789 | 0.519 | 1.16 | 1.15 | – | 1.1 | 0.671 | 0.916 | 0.928 | 0.966 | 0.974 | 1.16
13 | IA-LM | 0.892 | 0.825 | 0.867 | 0.754 | 0.795 | 1.03 | 0.744 | 0.821 | 0.83 | 0.501 | 0.855 | 0.71 | 0.755 | 0.92 | 0.527 | 0.629 | 0.493 | 0.68 | 0.579 | 0.63
14 | A-427 | 0.991 | 0.945 | 0.856 | 0.968 | 1.09 | 1.08 | 0.998 | 1.06 | 1.1 | 0.676 | 0.928 | 0.945 | 1.04 | 0.981 | 0.625 | 1.12 | 1.09 | 1.11 | 1.11 | 1.12
